Experiments:
[1] = biological target: PIK3CG (human) (UniProt P48736); assay: Assessment of PIK3CG Kinase Activity
[2] = biological target: PIK3CB (Human) (UniProt P42338); assay: Assessment of PIK3CB Kinase Activity
[3] = biological target: PIK3CA (human) (UniProt P42336); assay: Assessment of PIK3CA Kinase Activity
[4] = biological target: PIK3CD (Human) (UniProt O00329); assay: Assessment of PIK3CD Kinase Activity
[5] = biological target: PIK3CD (Human) (UniProt O00329); assay: Assessment of PIK3CD Kinase Activity in RAJI Cells

Sequence of PIK3CA (human) (P42336 whole entry, looked up): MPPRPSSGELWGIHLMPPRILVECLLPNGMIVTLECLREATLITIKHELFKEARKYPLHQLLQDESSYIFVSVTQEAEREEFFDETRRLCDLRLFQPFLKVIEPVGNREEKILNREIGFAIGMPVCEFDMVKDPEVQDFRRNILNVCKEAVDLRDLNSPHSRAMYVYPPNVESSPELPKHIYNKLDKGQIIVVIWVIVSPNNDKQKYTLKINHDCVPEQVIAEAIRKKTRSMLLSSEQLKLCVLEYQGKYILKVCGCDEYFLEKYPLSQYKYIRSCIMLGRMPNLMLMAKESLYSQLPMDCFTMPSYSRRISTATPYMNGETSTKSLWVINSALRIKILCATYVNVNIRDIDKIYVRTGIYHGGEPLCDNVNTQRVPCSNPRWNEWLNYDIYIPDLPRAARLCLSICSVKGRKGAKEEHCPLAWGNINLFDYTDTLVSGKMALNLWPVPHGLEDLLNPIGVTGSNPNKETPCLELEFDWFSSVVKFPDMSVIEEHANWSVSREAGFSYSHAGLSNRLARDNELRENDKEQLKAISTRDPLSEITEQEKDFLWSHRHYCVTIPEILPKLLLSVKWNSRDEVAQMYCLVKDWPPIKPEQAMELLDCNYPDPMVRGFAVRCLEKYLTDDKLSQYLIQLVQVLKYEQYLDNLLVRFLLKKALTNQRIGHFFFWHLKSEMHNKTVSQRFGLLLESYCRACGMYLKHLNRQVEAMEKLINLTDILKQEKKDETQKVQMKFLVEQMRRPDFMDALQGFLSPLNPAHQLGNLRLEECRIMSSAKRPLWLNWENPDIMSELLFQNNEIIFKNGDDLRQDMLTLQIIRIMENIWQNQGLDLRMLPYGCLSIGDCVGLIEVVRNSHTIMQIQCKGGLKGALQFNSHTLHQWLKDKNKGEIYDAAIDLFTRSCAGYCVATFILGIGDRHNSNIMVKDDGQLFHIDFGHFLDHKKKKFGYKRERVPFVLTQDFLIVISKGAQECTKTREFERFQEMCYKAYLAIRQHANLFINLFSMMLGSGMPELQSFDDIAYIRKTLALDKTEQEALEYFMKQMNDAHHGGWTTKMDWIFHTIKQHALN
Sequence of PIK3CD (Human) (O00329 whole entry, looked up): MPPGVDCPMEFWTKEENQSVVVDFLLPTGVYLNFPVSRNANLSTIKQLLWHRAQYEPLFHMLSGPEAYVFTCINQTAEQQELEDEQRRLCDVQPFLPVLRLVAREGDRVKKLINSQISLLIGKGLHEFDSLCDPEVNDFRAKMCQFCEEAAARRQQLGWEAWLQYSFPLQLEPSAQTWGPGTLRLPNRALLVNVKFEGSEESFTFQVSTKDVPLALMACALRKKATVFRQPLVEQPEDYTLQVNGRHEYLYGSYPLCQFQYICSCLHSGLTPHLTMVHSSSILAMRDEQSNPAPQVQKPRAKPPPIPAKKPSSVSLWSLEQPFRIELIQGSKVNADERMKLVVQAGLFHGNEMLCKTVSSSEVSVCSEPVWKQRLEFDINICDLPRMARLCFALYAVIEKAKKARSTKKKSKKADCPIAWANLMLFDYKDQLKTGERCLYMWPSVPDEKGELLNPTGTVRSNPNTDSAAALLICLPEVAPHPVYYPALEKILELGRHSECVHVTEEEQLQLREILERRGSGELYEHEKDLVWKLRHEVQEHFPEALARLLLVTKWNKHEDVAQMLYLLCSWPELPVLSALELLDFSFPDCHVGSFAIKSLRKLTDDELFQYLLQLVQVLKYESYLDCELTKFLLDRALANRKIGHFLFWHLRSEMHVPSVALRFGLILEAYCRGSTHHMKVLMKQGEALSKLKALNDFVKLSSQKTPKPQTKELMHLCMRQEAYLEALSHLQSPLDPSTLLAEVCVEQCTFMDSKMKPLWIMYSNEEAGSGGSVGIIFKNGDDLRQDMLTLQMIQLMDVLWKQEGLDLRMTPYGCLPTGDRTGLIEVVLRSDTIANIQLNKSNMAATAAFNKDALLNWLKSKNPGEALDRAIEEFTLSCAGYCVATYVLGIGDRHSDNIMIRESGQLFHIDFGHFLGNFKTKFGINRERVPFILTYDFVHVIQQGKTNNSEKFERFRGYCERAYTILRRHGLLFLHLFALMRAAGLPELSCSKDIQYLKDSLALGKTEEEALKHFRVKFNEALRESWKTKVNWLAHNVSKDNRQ
Sequence of PIK3CB (Human) (P42338 whole entry, looked up): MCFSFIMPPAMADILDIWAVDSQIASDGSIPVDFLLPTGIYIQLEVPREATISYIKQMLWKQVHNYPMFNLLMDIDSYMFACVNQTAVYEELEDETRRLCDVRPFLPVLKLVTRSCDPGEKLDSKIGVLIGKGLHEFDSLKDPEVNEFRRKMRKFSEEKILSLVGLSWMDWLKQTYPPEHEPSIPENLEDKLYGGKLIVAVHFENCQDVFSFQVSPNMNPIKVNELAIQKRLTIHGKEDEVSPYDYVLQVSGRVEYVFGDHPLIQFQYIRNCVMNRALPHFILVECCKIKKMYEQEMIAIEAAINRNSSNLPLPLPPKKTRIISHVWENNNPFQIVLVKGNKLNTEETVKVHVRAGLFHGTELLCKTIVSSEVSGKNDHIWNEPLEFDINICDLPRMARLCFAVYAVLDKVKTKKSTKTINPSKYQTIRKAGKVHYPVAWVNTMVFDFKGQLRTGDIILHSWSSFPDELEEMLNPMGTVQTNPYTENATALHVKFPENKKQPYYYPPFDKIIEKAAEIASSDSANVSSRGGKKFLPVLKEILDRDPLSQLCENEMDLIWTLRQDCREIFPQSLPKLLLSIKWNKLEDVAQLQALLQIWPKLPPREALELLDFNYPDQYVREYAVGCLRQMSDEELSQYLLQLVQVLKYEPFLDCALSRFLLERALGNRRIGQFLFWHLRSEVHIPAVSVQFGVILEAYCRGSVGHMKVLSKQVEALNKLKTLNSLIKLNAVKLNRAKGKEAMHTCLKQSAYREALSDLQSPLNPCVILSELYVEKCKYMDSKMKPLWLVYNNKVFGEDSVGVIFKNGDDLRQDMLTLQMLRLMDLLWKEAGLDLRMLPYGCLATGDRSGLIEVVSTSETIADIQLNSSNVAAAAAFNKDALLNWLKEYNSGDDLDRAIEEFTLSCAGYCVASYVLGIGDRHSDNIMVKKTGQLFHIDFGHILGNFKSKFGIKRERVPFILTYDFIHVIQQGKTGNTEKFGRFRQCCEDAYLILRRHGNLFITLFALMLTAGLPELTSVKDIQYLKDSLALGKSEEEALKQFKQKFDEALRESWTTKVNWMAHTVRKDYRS
Sequence of PIK3CG (human) (P48736 whole entry, looked up): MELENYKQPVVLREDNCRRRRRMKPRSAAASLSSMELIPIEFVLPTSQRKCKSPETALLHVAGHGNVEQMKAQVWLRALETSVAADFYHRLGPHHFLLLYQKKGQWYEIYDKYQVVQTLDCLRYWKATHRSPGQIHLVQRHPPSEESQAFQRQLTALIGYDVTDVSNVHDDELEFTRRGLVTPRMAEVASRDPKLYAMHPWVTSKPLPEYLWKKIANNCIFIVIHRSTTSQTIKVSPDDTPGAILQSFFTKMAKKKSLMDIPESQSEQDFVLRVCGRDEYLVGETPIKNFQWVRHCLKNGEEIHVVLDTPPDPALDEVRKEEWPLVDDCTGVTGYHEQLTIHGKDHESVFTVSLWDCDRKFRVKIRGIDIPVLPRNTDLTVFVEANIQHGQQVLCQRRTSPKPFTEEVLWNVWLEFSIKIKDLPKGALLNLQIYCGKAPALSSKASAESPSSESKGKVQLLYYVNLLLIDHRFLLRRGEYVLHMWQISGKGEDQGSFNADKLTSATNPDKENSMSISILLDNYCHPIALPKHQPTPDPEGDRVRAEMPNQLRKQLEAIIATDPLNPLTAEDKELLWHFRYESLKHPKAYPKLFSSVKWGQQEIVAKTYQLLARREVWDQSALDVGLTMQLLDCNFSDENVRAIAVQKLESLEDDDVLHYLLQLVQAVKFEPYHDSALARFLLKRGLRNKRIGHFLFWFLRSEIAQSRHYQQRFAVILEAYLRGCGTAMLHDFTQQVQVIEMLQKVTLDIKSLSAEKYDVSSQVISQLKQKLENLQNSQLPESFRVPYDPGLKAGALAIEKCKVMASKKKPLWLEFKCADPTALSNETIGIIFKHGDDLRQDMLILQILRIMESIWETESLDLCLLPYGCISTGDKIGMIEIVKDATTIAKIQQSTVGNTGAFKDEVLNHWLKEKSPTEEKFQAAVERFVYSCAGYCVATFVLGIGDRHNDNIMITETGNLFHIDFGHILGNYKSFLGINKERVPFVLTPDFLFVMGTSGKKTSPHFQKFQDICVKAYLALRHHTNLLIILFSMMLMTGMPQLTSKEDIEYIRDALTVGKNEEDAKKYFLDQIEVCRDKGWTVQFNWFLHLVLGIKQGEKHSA

Row | SMILES | IC50 [1] | IC50 [2] | IC50 [3] | IC50 [4] | IC50 [5]
1 | C[C@H](Nc1cc(C(F)(F)F)nc(N)n1)c1cc2cccc(Cl)c2c(=O)n1-c1ccccc1 | > 10000 nM | > 10000 nM | > 10000 nM | > 10000 nM | –
2 | CSc1ncc(-c2cnc(N)nc2N[C@@H](C)c2cc3cccc(Cl)c3c(=O)n2-c2ccccc2)s1 | < 100 nM | 100 to 1000 nM | 100 to 1000 nM | < 100 nM | –
3 | COc1cc(-c2cccc3cc([C@H](C)Nc4nc(N)ncc4-c4ccc(F)c(O)c4)n(-c4ccccc4)c(=O)c23)ccn1 | < 100 nM | > 10000 nM | > 10000 nM | < 100 nM | –
4 | C[C@H](Nc1nc(N)ncc1C#N)c1cc2cccc(Cl)c2c(=O)n1-c1cccnc1 | < 100 nM | 100 to 1000 nM | > 10000 nM | < 100 nM | –
5 | COc1cc(-c2cccc3cc([C@@H](C)Nc4nc(N)ncc4C#N)n(-c4ccccc4)c(=O)c23)ccn1 | 100 to 1000 nM | > 10000 nM | > 10000 nM | < 100 nM | –
6 | COc1cc(-c2cccc3cc([C@H](C)Nc4nc(N)ncc4C#N)n(C4CC4)c(=O)c23)ccn1 | < 100 nM | < 100 nM | 100 to 1000 nM | < 100 nM | –
7 | C[C@H](Nc1nc(N)ncc1C(=O)N1CCC1)c1cc2cccc(-c3cnn(C)c3)c2c(=O)n1-c1ccccc1 | < 100 nM | > 10000 nM | > 10000 nM | 100 to 1000 nM | –
8 | C[C@H](Nc1nc(N)ncc1C#N)c1cc2cccc(-c3cncc(N(C)C)c3)c2c(=O)n1-c1ccccc1 | < 100 nM | > 10000 nM | 100 to 1000 nM | < 100 nM | –
9 | C[C@H](Nc1nc(N)ncc1NS(C)(=O)=O)c1cc2cccc(Cl)c2c(=O)n1-c1ccccc1 | > 10000 nM | > 10000 nM | > 10000 nM | > 10000 nM | –
10 | C[C@H](Nc1ncnc(N)c1[N+](=O)[O-])c1cc2cccc(Cl)c2c(=O)n1-c1ccccc1 | < 100 nM | < 100 nM | 100 to 1000 nM | < 100 nM | –
11 | COc1ncc(-c2cccc3cc([C@H](C)Nc4nc(N)ncc4C(N)=O)n(-c4ccccc4)c(=O)c23)cn1 | < 100 nM | > 10000 nM | > 10000 nM | < 100 nM | –
12 | COc1cncc(-c2cccc3cc([C@H](C)Nc4nc(N)ncc4C#N)n(C4CC4)c(=O)c23)c1 | < 100 nM | 100 to 1000 nM | 100 to 1000 nM | < 100 nM | –
13 | COc1cncc(-c2cccc3cc([C@H](C)Nc4nc(N)ncc4C#N)n(-c4ccccc4)c(=O)c23)c1 | < 100 nM | 100 to 1000 nM | 100 to 1000 nM | < 100 nM | –
14 | C[C@H](Nc1nc(N)ncc1C#N)c1cc2cccc(-c3cnc4[nH]ccc4c3)c2c(=O)n1-c1cccc(F)c1 | < 100 nM | 100 to 1000 nM | 100 to 1000 nM | < 100 nM | –
15 | COc1ncc(-c2cccc3cc([C@H](C)Nc4nc(N)ncc4C(F)(F)F)n(-c4ccccc4)c(=O)c23)cn1 | 100 to 1000 nM | > 10000 nM | > 10000 nM | < 100 nM | –
16 | COc1ncc(-c2cccc3cc([C@H](C)Nc4nc(N)ncc4C(F)(F)F)n(-c4cccc(F)c4)c(=O)c23)cn1 | 100 to 1000 nM | > 10000 nM | > 10000 nM | < 100 nM | –
17 | C[C@H](Nc1nc(N)ncc1C#N)c1cc2cccc(Oc3ccccc3)c2c(=O)n1-c1ccccc1 | < 100 nM | > 10000 nM | > 10000 nM | < 100 nM | –
18 | COc1cc(-c2cccc3cc([C@H](C)Nc4nc(N)ncc4C(=O)N4CC(F)(F)C4)n(-c4ccccc4)c(=O)c23)ccn1 | 100 to 1000 nM | > 10000 nM | > 10000 nM | 100 to 1000 nM | –
19 | Cc1ncc(-c2cnc(N)nc2N[C@@H](C)c2cc3cccc(Cl)c3c(=O)n2-c2ccccc2)s1 | < 100 nM | 100 to 1000 nM | > 10000 nM | < 100 nM | –
20 | C[C@H](Nc1nc(N)ncc1-c1cncc(S(C)(=O)=O)c1)c1cc2cccc(Cl)c2c(=O)n1-c1ccccc1 | 100 to 1000 nM | – | – | – | < 100 nM
21 | COc1cc(-c2cccc3cc([C@H](C)Nc4nc(N)ncc4C(=O)O)n(-c4ccccc4)c(=O)c23)ccn1 | > 10000 nM | > 10000 nM | > 10000 nM | > 10000 nM | –
22 | C[C@H](Nc1nc(N)ncc1-c1cccnc1)c1cc2cccc(Cl)c2c(=O)n1-c1ccccc1 | < 100 nM | > 10000 nM | > 10000 nM | 100 to 1000 nM | –
23 | Cc1cc(N[C@@H](C)c2cc3cccc(Cl)c3c(=O)n2-c2ccccc2)nc(N)n1 | > 10000 nM | > 10000 nM | > 10000 nM | > 10000 nM | –
24 | C[C@H](Nc1nc(N)ncc1-c1csc(S(C)(=O)=O)n1)c1cc2cccc(Cl)c2c(=O)n1-c1ccccc1 | < 100 nM | < 100 nM | < 100 nM | < 100 nM | –
25 | Cc1ccc(-c2cccc3cc([C@H](C)Nc4nc(N)ncc4C#N)n(-c4ccccc4)c(=O)c23)cc1 | < 100 nM | 100 to 1000 nM | 100 to 1000 nM | < 100 nM | –
26 | COc1nc(-c2cnc(N)nc2N[C@@H](C)c2cc3cccc(Cl)c3c(=O)n2-c2ccccc2)cs1 | < 100 nM | < 100 nM | 100 to 1000 nM | < 100 nM | –
27 | C[C@H](Nc1nc(N)ncc1C#N)c1cc2cccc(Cl)c2c(=O)n1C | 100 to 1000 nM | 100 to 1000 nM | > 10000 nM | 100 to 1000 nM | –

Now from value to compound:

Row | IC50 [1] | IC50 [2] | IC50 [3] | IC50 [4] | IC50 [5] | SMILES
28 | < 100 nM | – | – | – | < 100 nM | C[C@H](Nc1nc(N)ncc1C#N)c1cc2cccc(-c3cncc(NS(C)(=O)=O)c3)c2c(=O)n1-c1ccccc1
29 | < 100 nM | 100 to 1000 nM | < 100 nM | < 100 nM | – | COc1cc(-c2cccc3cc([C@H](C)Nc4nc(N)nc(C)c4C#N)n(-c4ccccc4)c(=O)c23)ccn1
30 | < 100 nM | > 10000 nM | > 10000 nM | < 100 nM | – | C[C@H](Nc1nc(N)ncc1C#N)c1cc2cccc(-c3ccnc(O)c3)c2c(=O)n1-c1ccccc1
31 | < 100 nM | < 100 nM | < 100 nM | < 100 nM | – | Cc1nc(N)nc(N[C@@H](C)c2cc3cccc(Cl)c3c(=O)n2-c2ccccc2)c1C#N
32 | 100 to 1000 nM | > 10000 nM | > 10000 nM | 100 to 1000 nM | – | C[C@H](Nc1nc(N)ncc1C#N)c1cc2cccc(Cl)c2c(=O)n1-c1ccc(F)cc1
33 | < 100 nM | 100 to 1000 nM | 100 to 1000 nM | < 100 nM | – | CNC(=O)c1cnc(N)nc1N[C@@H](C)c1cc2cccc(-c3ccnc(OC)c3)c2c(=O)n1-c1ccccc1
34 | < 100 nM | > 10000 nM | 100 to 1000 nM | < 100 nM | – | COc1cc(-c2cccc3cc([C@H](C)Nc4nc(N)ncc4C(=O)N(C)C)n(-c4ccccc4)c(=O)c23)ccn1
35 | < 100 nM | > 10000 nM | > 10000 nM | 100 to 1000 nM | – | COc1cc(-c2cccc3cc([C@H](C)Nc4nc(N)ncc4C(=O)N(C)OC)n(-c4ccccc4)c(=O)c23)ccn1
36 | 100 to 1000 nM | > 10000 nM | > 10000 nM | 100 to 1000 nM | – | C[C@H](Nc1cc(Cl)nc(N)n1)c1cc2cccc(Cl)c2c(=O)n1-c1ccccc1
37 | 100 to 1000 nM | > 10000 nM | > 10000 nM | < 100 nM | – | C[C@H](Nc1nc(N)ncc1C#N)c1cc2cccc(-c3cccc(O)n3)c2c(=O)n1-c1ccccc1
38 | < 100 nM | > 10000 nM | > 10000 nM | < 100 nM | – | Cc1ncc(-c2cccc3nc([C@H](C)Nc4nc(N)ncc4C#N)n(-c4ccccc4)c(=O)c23)cn1
39 | 100 to 1000 nM | 100 to 1000 nM | > 10000 nM | < 100 nM | – | C[C@H](Nc1nc(N)ncc1C#N)c1cc2cccc(-c3ccnnc3)c2c(=O)n1C1CC1
40 | < 100 nM | > 10000 nM | > 10000 nM | < 100 nM | – | COc1cc(-c2cccc3cc([C@H](C)Nc4nc(N)ncc4-c4ccc(O)c(F)c4)n(-c4ccccc4)c(=O)c23)ccn1

Reference: the Kinase Knowledgebase extract (Sharma et al. 2016)
